Values of other authors as cited in patent publication US7960134B1, “Kinase inhibition models and their uses” (ArQule, Inc., priority 2007, dated 2011).

Legend:
c-Met = c-Met (Homo sapiens, UniProt P08581); conditions: observation cited from WO 2006/086484 A1
c-Abl = c-Abl (Homo sapiens, UniProt P00519); conditions: observation cited from WO 2006/086484 A1
Sequence of c-Abl (P00519 whole entry): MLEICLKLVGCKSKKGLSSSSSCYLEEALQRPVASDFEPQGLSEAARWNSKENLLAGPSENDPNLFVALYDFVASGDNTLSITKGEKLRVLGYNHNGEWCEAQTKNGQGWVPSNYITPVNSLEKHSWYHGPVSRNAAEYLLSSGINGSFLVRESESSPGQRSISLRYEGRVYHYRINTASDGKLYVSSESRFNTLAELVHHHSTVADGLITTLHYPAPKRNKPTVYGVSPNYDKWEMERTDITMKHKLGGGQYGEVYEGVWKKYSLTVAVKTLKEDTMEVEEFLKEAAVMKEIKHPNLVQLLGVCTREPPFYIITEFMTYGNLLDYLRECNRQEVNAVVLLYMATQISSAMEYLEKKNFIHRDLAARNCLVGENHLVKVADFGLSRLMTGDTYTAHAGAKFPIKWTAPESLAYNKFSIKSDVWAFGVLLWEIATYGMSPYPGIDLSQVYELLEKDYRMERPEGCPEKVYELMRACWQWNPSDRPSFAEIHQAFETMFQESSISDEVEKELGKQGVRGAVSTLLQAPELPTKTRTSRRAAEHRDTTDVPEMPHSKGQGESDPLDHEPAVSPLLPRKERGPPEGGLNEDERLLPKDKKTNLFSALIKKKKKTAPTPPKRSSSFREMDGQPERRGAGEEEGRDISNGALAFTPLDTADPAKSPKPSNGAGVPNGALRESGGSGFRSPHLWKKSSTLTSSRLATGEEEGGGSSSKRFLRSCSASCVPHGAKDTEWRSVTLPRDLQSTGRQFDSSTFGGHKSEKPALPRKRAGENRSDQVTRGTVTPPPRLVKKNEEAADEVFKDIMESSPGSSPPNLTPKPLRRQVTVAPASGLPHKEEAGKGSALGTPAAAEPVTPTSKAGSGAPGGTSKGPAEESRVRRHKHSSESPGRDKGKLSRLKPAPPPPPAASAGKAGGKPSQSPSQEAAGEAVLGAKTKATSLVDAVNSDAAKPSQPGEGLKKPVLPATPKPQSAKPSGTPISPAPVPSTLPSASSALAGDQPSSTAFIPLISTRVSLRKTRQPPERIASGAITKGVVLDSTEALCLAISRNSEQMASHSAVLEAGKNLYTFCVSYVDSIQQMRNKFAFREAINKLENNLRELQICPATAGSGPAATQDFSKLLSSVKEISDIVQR

Sequence of c-Met (P08581 25-1390): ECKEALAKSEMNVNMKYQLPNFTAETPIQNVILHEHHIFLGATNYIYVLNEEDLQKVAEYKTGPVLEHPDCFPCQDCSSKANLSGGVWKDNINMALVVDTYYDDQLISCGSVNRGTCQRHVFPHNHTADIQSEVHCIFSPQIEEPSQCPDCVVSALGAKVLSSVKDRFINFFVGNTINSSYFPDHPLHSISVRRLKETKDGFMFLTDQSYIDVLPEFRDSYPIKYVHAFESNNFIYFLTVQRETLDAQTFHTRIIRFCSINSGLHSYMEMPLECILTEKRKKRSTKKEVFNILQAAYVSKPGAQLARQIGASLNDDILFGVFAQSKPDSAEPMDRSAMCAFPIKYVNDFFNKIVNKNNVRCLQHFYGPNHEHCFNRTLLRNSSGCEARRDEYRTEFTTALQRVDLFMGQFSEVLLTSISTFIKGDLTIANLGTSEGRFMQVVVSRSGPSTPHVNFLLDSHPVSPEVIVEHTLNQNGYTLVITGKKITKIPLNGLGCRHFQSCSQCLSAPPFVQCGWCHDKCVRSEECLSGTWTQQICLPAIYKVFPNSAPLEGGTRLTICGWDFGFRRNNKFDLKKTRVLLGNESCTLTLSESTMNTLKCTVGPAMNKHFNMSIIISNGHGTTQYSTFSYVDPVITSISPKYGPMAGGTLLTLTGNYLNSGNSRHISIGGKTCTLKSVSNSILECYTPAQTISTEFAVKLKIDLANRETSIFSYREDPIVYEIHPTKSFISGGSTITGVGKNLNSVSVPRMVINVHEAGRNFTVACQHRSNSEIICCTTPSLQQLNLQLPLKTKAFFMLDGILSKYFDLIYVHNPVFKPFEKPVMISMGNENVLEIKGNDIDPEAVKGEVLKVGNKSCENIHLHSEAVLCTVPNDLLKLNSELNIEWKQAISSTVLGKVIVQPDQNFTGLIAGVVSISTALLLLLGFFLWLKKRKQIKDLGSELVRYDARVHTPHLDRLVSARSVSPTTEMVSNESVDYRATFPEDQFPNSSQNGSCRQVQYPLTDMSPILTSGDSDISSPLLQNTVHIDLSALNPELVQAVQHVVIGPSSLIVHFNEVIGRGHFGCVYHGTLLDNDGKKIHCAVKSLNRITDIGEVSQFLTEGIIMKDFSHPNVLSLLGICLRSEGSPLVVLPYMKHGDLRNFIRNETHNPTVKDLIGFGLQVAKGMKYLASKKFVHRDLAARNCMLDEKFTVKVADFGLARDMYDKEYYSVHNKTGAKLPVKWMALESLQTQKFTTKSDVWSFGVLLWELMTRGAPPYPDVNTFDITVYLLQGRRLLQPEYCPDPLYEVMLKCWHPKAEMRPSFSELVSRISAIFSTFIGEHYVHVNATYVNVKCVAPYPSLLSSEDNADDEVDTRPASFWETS

O=C1NC(=O)[C@@H](c2cn3c4c(cccc24)CCC3)[C@@H]1c1c[nH]c2ccccc12 (single isomer, unassigned) [the selective c-Met inhibitor, (−)-trans-3-(5,6-dihydro-4H-pyrrolo[3,2,1-ij]quinolin-1-yl)-4(1H-indol-3-yl)pyrrolidine-2,5-dione]
inhibition of the activity of c-Met (c-Met): inhibits the activity of c-Met effectively | inhibition of the activity of c-Abl (c-Abl): does not inhibit the activity of c-Abl effectively
